Consider one compound from patent US10188108B2, “Fused bicyclic heterocycle derivatives as pesticides” (BAYER CROPSCIENCE AKTIENGESELLSCHAFT, priority 2015, dated 2019).

Each structure is given as a SMILES string.

One data set has as its system Spodoptera frugiperda. The experiment in a line: Spodoptera frugiperda - spray test. To be noted: 500 g/ha, after 7 days, caterpillars on maize leaf discs. The data set is classed as in vivo.
The subject of the next data set is Lucilia cuprina. The experiment in a line: Lucilia cuprina test. In kind it is in vivo. To be noted: 100 ppm, after 2 days, L1 larvae. The procedure: • Solvent: dimethyl sulphoxide To produce a suitable preparation of active compound, 10 mg of active compound are mixed with 0.5 ml of dimethyl sulphoxide, and the concentrate is diluted with water to the desired concentration. About 20 L1 larvae of the Australian sheep blowfly (Lucilia cuprina) are transferred into a test vessel containing minced horsemeat and the active compound preparation of the desired concentration. After 2 days, the kill in % is determined. 100% means that all the larvae have been killed; 0% means that no larvae have been killed.

The test system of a further data set is Phaedon cochleariae. The experiment in a line: Phaedon cochleariae - spray test. In kind it is in vivo. To be noted: 500 g/ha, after 7 days, larvae on Chinese cabbage leaf discs.
The nature of data set [1]: log P by HPLC on a reversed-phase column (C 18), EEC Directive 79/831 Annex V.A8. In kind it is physicochemical. To be noted: 55° C.
In a further data set the test system is Myzus persicae. Put plainly: Myzus persicae spray test (bell pepper plants). The data set is classed as in vivo. Particulars: 100 ppm, after 6 days. The procedure:
• Solvent: 14 parts by weight of dimethylformamide • Emulsifier: alkylaryl polyglycol ether
To produce a suitable preparation of active compound, 1 part by weight of active compound is dissolved using the stated parts by weight of solvent and made up with water containing an emulsifier concentration of 1000 ppm until the desired concentration is attained. To produce further test concentrations, the preparation is diluted with emulsifier-containing water. If the addition of ammonium salts or/and penetrants is required, these are each added in a concentration of 1000 ppm to the formulation solution.
Bell pepper plants (Capsicum annuum) severely infested with the green peach aphid (Myzus persicae) are treated by spraying with the active compound preparation in the desired concentration.
After 6 days, the kill in % is determined. 100% means that all of the aphids have been killed; 0% means that none of the aphids have been killed.

As for `CCS(=O)(=O)c1c(-c2nc3cc(C(F)(F)F)ccc3n2C)nc2ccccn12` [Example I-10], the efficacy in the data set on Spodoptera frugiperda and with Phaedon cochleariae was 100% throughout. For the same compound, the “efficacy (kill)” value with Lucilia cuprina and in the data set with Myzus persicae was 100% in each case. In data set [1] (acidic range, pH 2.7, 0.1% aqueous formic acid/acetonitrile), this compound showed an LOGP_HCOOH of 2.70. In addition, the LOGP_NEUTRAL in data set [1] (neutral range, pH 7.8, 0.001 molar aqueous ammonium hydrogencarbonate/acetonitrile) is 2.64.
